Measured values from patent publication US4943646A, “Gallium complexes and solvent extraction of gallium” (Monsanto Company, priority 1987, dated 1990).
Read-outs that look alike come from different tables or passages of the source. Blank lines part the entries; values can stand above or below the compound they belong to.

Experiments:
[1] = Extent of hydrolysis of hydroxamic acids after extraction, washing and stripping, by spectrophotographic analysis; conditions: for % DECOMPOSITION: additional, less careful determinations (untitled table); for % Decomposition (hydrolysis of hydroxamic acid): after extraction-wash-strip cycle, Table 4
[2] = Organic solubility and viscosity of organic solutions (Table 13); type: physicochemical
Source text: The organic solubilities and viscosity characteristics of N-alkylalkanohydroxamic acids, in comparison with N-H hydroxamic acids, are reported in Table 13.

[3] = Analysis of hydroxamic acid remaining after acid stripping (Example 11); type: physicochemical
Source text: The organic solutions remaining after the acid stripping were washed with water and the petroleum ether was stripped under vacuum. […] Analysis of the unsubstituted naphthenohydroxamic acid indicated 91% decomposition. This example also indicates the usefulness of diluting the organic phase with a volatile, water immiscible organic solvent to provide more complete stripping of metal. After stripping the extractant is regenerated by distilling off the volatile solvent. Both organic liquids are recycled.

[4] = Stirred-beaker extraction, 2% H2SO4 wash and 30% H2SO4 strip of gallium from phosphate treater dust leachate (Examples 1-7); conditions: 5 minutes extraction
[5] = Percentage of extractant pulled into the aqueous phase by Fe (III) in 0.25M H2SO4; type: physicochemical; conditions: Fe (III) in 0.25M H2SO4 (pH=0.3), 22 °C
Method: Tests were conducted on a series of hydroxamic acids to determine the percentages of the extractants pulled into an aqueous phase from an organic phase, by Fe (III) in 0.25M H2 SO4 (pH=0.3) at 22° C. The conditions represent a severe test of aqueous solubility since the pH favors FeA^++ formation, where A=hydroxamate anion. […] With regard to hydroxamic acids with n less than 6, a compound with n=4, i.e. N-methyl hexanohydroxamic acid, was approximately 35% pulled into the aqueous phase.

[6] = below 0.01M nitric acid; cited from earlier work
[7] = Hydroxamic acid in the aqueous phase (Example 24); type: physicochemical; conditions: for HA in aqueous phase: Table 19
Method: A solution was prepared containing 30% by weight N-methyl naphthenohydroxamic acid in kerosene solvent containing 5% by volume isodecanol. A gallium sulfate solution was prepared by mixing 1 ml of an aqueous gallium sulfate solution, 90.8 grams/liter concentration, with 25 ml deionized water. The thus prepared solution was blended with 25 ml of the N-methyl naphtheno hydroxamic acid solution and 800 microliters of 10N NaOH was added from a microburette. […] The gallium had been extracted into the organic solution. The aqueous phase was replaced with an equal volume of 0.1M sodium acetate, which gave a pH 8.21. A 60 microliter amount of 10N NaOH was added, which gave a 9.3 pH after the phases were blended for 20 minutes. […] Additional increments of l0N NaOH were added and gallium concentrations were determined after blending, with results as reported in Table 19. All blending operations were conducted at about 60° C.
The results in Table 19 indicate that the stripping into the aqueous phase is almost negligible at pH below about 11, and in fact the 15 ppm values reported are at about the limit of the analytical method used. […] It appears that efficient extraction can be effected under alkaline conditions ranging from pH 7 to about 11. In the initial result at pH 11.91, a large amount of the hydroxamic acid was stripped into the aqueous phase. However, after an additional amount of isodecanol was added, the phases were easily separated and hydroxamic acid was not found in the aqueous phase. Thus, for pH over about 11.5 it is greatly advantageous to have a coordination solvent such as a long-chain alkanol or other water-insoluble alcohol present in substantial quantity, such as around 20% or more by volume of the organic solvents present. The coordinating solvent modifier assists in phase separation and in avoiding undue loss of the hydroxamic acid to the aqueous stripping solution. Of course stripping the gallium can be accomplished despite significant loss of the hydroxamic acid, and the hydroxamic acid can be recycled with the stripping solution or recovered therefrom.

Compound: naphthenohydroxamic acid [reference compound]
VISCOSITY ORGANIC SOL. ([2]; Table 13): High
solubility in KEROSENE ([2]; Table 13): Low
solubility in KEROSENE WITH ISODECANOL ([2]; Table 13): Low
decomposition ([3]; after acid stripping): 91%
% DECOMPOSITION [1]: 42.5%
% Decomposition (hydrolysis of hydroxamic acid) [1]: 45%
% Decomposition (hydrolysis of hydroxamic acid) ([1]; listed as N--H naphthenohydroxamic acid): 45.0%
% Decomposition (hydrolysis of hydroxamic acid) ([1]; listed as unsubstituted hydroxamic acid): 45%
Ga remaining in aqueous phase [4]: 3.6 ppm

Compound: N-methyl isostearohydroxamic acid
VISCOSITY ORGANIC SOL. ([2]; Table 13): V. Low
solubility in KEROSENE ([2]; Table 13): V. Soluble (V. Soluble = dissolves in molar quantities (>1) (V = very))
solubility in KEROSENE WITH ISODECANOL ([2]; Table 13): V. Soluble (V. Soluble = dissolves in molar quantities (>1) (V = very))

Compound: CCCCCC(=O)N(C)O [N-methyl hexanohydroxamic acid]
extractant pulled into the aqueous phase [5]: approximately 35%

Compound: neotridecanohydroxamic acid
VISCOSITY ORGANIC SOL. ([2]; Table 13): High
solubility in KEROSENE ([2]; Table 13): Soluble
solubility in KEROSENE WITH ISODECANOL ([2]; Table 13): Soluble

Compound: neodecanohydroxamic acid
Ga remaining in aqueous phase [4]: 3 ppm

Compound: CCCCCCCC(=O)NO [caprylhydroxamic acid]
hydrolysis [6]: hydrolysis occurs rather slowly

Other lines, results leading:

% DECOMPOSITION [1]: 38.6%
Compound: CCCCCCCCCCc1ccc(C(=O)N(C)O)cc1 [N-methyl 4-decylbenzo HA]

% DECOMPOSITION [1]: 0.13%
Compound: N-methylneodecanohydroxamic acid

% DECOMPOSITION [1]: 4.6%
% Decomposition (hydrolysis of hydroxamic acid) [1]: +0.74%
Compound: N-n-propylnaphthenohydroxamic acid

% DECOMPOSITION [1]: 1.0%
% Decomposition (hydrolysis of hydroxamic acid) [1]: -0.53%
Compound: N-ethylnaphthenohydroxamic acid

VISCOSITY ORGANIC SOL. [2]: Medium
HA in aqueous phase ([7]; b715 pH 10.57, b719 after adding 10 ml isodecanol): negative
HA in aqueous phase ([7]; pH 11.91): 0.65 M
test for hydroxamic acid in aqueous phase ([7]; pH 8.26): negative
extractant concentration after stripping (original 1M) ([3]; possibly mechanical losses and some dilution): 0.8744 M
% Decomposition (hydrolysis of hydroxamic acid) (extraction-wash-strip cycle): +0.14%
% DECOMPOSITION (used extractant solutions): 4.99%
Compound: N-methylnaphthenohydroxamic acid
